Experimental data published in PubChem BioAssay AID248 (DTP/NCI, 2004).
Values joined by “and” are separate entries in the source; they are usually repeats but may differ in a detail not shown here. Identical values can stand only once. Inconclusive results and toxic doses are left out. No stated cut-off is given here; in the data, active means T/C of 150% or more; inactive means T/C below 125%.

System: L1210 leukemia ip in BDF1 mice, survival T/C
Experiment: NCI In Vivo Anticancer Drug Screen. Data for tumor model L1210 Leukemia (intraperitoneal) in B6D2F1 (BDF1) mice
Conditions: endpoint: mean survival time, higher = longer survival
Summary of the method: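 Antitumor effect is assessed in tumor-bearing animals. Survival in the compound arm is compared with a vehicle-dosed control arm and expressed as their quotient.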

[1] = dose: 100.0 mg/kg/injection, schedule: Q01DX001 (ip), vehicle: saline
[2] = dose: 200.0 mg/kg/injection, schedule: Q01DX001 (ip), vehicle: saline
[3] = dose: 400.0 mg/kg/injection, schedule: Q01DX001 (ip), vehicle: saline
[4] = dose: 100.0 mg/kg/injection, schedule: Q01DX009 (ip), vehicle: saline with Tween-80
[5] = dose: 100.0 mg/kg/injection, schedule: Q04DX003 (ip), vehicle: saline with Tween-80
[6] = dose: 200.0 mg/kg/injection, schedule: Q01DX009 (ip), vehicle: saline with Tween-80
[7] = dose: 200.0 mg/kg/injection, schedule: Q04DX003 (ip), vehicle: saline with Tween-80
[8] = dose: 400.0 mg/kg/injection, schedule: Q04DX003 (ip), vehicle: saline with Tween-80
[9] = dose: 100.0 mg/kg/injection, schedule: Q04DX002 (ip), vehicle: saline with Tween-80
[10] = dose: 200.0 mg/kg/injection, schedule: Q04DX002 (ip), vehicle: saline with Tween-80
[11] = dose: 400.0 mg/kg/injection, schedule: Q04DX002 (ip), vehicle: saline with Tween-80

Measured: T/C

O=C(CCCC(=O)N/N=C/c1ccc(Cl)c(Cl)c1)N/N=C\c1ccc(Cl)c(Cl)c1
inactive: dose: 50.0 mg/kg/injection, schedule: Q01DX001 (ip), vehicle: saline 116 % of control | [1] 110 % of control | [2] 118 % of control | [3] 100 % of control

CC1(C)OCC(C2OC3OC(C)(C)OC3C2O)O1 (centres undefined)
inactive: [1] 97 % of control | [2] 100 % of control | [3] 100 % of control

O=[N+]([O-])c1cc(Cl)cc2c1-c1ccc(Cl)cc1/C2=N\O
inactive: dose: 100.0 mg/kg/injection, schedule: Q01DX001 (ip), vehicle: carboxymethylcellulose (CMC) 103 % of control | dose: 200.0 mg/kg/injection, schedule: Q01DX001 (ip), vehicle: carboxymethylcellulose (CMC) 103 % of control | dose: 400.0 mg/kg/injection, schedule: Q01DX001 (ip), vehicle: carboxymethylcellulose (CMC) 103 % of control

O=c1c2ccccc2[nH]c2ccc(-n3nnc4ccccc4c3=O)cc12
inactive: dose: 6.0 mg/kg/injection, schedule: Q04DX003 (ip), vehicle: saline 103 % of control | dose: 12.0 mg/kg/injection, schedule: Q04DX003 (ip), vehicle: saline 89 % of control | dose: 25.0 mg/kg/injection, schedule: Q04DX003 (ip), vehicle: saline 94 % of control

Cc1ccc2c(c1)nc1c3ccccc3nc(-c3ccccc3N)n21
inactive: [4] 89 % of control | [5] 104 % of control | [6] 87 % of control | [7] 91 % of control | [8] 104 % of control

CC12CCC(=O)C=C1CCC1C2CCC2(C)C(C(=O)COC(=O)c3cc([N+](=O)[O-])c(N4CC4)c([N+](=O)[O-])c3)CCC12 (centres undefined)
inactive: dose: 50.0 mg/kg/injection, schedule: Q01DX001 (sc), vehicle: steriod suspending solution 95 % of control | dose: 60.0 mg/kg/injection, schedule: Q01DX015 (ip), vehicle: saline 88 % of control | dose: 90.0 mg/kg/injection, schedule: Q01DX015 (ip), vehicle: saline 86 % of control | dose: 100.0 mg/kg/injection, schedule: Q01DX001 (sc), vehicle: steriod suspending solution 106 % of control | dose: 135.0 mg/kg/injection, schedule: Q01DX015 (ip), vehicle: saline 88 % of control | dose: 200.0 mg/kg/injection, schedule: Q01DX001 (sc), vehicle: steriod suspending solution 97 % of control | dose: 200.0 mg/kg/injection, schedule: Q01DX015 (ip), vehicle: saline 91 % of control | dose: 400.0 mg/kg/injection, schedule: Q01DX001 (sc), vehicle: steriod suspending solution 101 % of control

COc1ccc2cc1Oc1ccc(cc1)CC1c3cc(c(OC)cc3CCN1C)Oc1c(OC)c(OC)c(OC)c3c1C(C2)N(C)CC3 (centres undefined)
inactive: dose: 100.0 mg/kg/injection, schedule: Q04DX002 (ip), vehicle: Klucel (hydroxypropylcellulose) (HPC) 102 % of control | dose: 200.0 mg/kg/injection, schedule: Q04DX002 (ip), vehicle: Klucel (hydroxypropylcellulose) (HPC) 91 % of control | dose: 400.0 mg/kg/injection, schedule: Q04DX002 (ip), vehicle: Klucel (hydroxypropylcellulose) (HPC) 94 % of control

Cc1[nH]c(=O)nc2c1CCO2
inactive: [1] 98 % of control | [2] 104 % of control | [3] 101 % of control

Nc1ccc2nc3c4ccccc4c(O)n3nc2c1
inactive: [9] 106 % of control | [10] 102 % of control | [11] 102 % of control

Nc1nccnc1C(=O)O
inactive: dose: 25.0 mg/kg/injection, schedule: Q01DX009 (ip), vehicle: water 100 % of control | dose: 50.0 mg/kg/injection, schedule: Q01DX009 (ip), vehicle: water 96 % of control | dose: 100.0 mg/kg/injection, schedule: Q01DX009 (ip), vehicle: water 100 % of control | dose: 200.0 mg/kg/injection, schedule: Q01DX009 (ip), vehicle: water 96 % of control

O=C=Nc1ccccc1-c1ccccc1
inactive: [9] 98 % of control | [10] 98 % of control | [11] 100 % of control

O=C(O)CCC(=O)c1cc2ccccc2s1
inactive: dose: 100.0 mg/kg/injection, schedule: Q04DX003 (ip), vehicle: Klucel (hydroxypropylcellulose) (HPC) 92 % of control | dose: 200.0 mg/kg/injection, schedule: Q04DX003 (ip), vehicle: Klucel (hydroxypropylcellulose) (HPC) 99 % of control | dose: 400.0 mg/kg/injection, schedule: Q04DX003 (ip), vehicle: Klucel (hydroxypropylcellulose) (HPC) 99 % of control

CSc1cc(-c2ccc(Cl)cc2)s[s+]1
inactive: dose: 12.5 mg/kg/injection, schedule: Q01DX009 (ip), vehicle: saline with Tween-80 95 % of control | dose: 25.0 mg/kg/injection, schedule: Q01DX009 (ip), vehicle: saline with Tween-80 90 % of control | dose: 25.0 mg/kg/injection, schedule: Q04DX003 (ip), vehicle: saline with Tween-80 100 % of control | dose: 50.0 mg/kg/injection, schedule: Q01DX009 (ip), vehicle: saline with Tween-80 97 % of control | dose: 50.0 mg/kg/injection, schedule: Q04DX003 (ip), vehicle: saline with Tween-80 103 % of control | [5] 98 % of control and 86 % of control

COc1cc(O)c(C(C)=O)c(OC)c1
inactive: [4] 98 % of control | [5] 101 % of control | [6] 96 % of control | [7] 95 % of control | dose: 400.0 mg/kg/injection, schedule: Q01DX009 (ip), vehicle: saline with Tween-80 90 % of control | [8] 93 % of control

NOCc1ccsn1
inactive: dose: 100.0 mg/kg/injection, schedule: Q01DX001 (ip), vehicle: other 105 % of control | dose: 100.0 mg/kg/injection, schedule: Q01DX009 (ip), vehicle: sodium bicarbonate 96 % of control | dose: 100.0 mg/kg/injection, schedule: Q04DX003 (ip), vehicle: other 102 % of control | dose: 200.0 mg/kg/injection, schedule: Q01DX001 (ip), vehicle: other 111 % of control | dose: 200.0 mg/kg/injection, schedule: Q01DX009 (ip), vehicle: sodium bicarbonate 98 % of control | dose: 200.0 mg/kg/injection, schedule: Q04DX003 (ip), vehicle: other 95 % of control | dose: 400.0 mg/kg/injection, schedule: Q01DX001 (ip), vehicle: other 94 % of control
